ChEMBL document CHEMBL1145498, “A systematic interaction map of validated kinase inhibitors with Ser/Thr kinases” (Proc Natl Acad Sci U S A, 2007)

Legend:
[1] = target: Serine/threonine-protein kinase RIO2 (Homo sapiens) (UniProt Q9BVS4)
[2] = target: T1, Dual specificity mitogen-activated protein kinase kinase 6 (Homo sapiens) (UniProt P52564)
T1 sequence (whole entry): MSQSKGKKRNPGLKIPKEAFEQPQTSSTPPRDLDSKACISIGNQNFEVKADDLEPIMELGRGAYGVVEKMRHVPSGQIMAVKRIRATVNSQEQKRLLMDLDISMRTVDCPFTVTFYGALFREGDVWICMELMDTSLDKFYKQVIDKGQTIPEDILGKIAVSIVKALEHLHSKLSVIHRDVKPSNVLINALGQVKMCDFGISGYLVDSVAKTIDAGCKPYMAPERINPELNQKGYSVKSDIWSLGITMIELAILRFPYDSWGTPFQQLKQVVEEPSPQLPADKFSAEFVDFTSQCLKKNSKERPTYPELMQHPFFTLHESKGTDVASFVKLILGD

[3] = target: Serine/threonine-protein kinase PAK 5 (Homo sapiens) (UniProt Q9P286)
Serine/threonine-protein kinase PAK 5 (Homo sapiens), sequence (Q9P286 whole entry, looked up): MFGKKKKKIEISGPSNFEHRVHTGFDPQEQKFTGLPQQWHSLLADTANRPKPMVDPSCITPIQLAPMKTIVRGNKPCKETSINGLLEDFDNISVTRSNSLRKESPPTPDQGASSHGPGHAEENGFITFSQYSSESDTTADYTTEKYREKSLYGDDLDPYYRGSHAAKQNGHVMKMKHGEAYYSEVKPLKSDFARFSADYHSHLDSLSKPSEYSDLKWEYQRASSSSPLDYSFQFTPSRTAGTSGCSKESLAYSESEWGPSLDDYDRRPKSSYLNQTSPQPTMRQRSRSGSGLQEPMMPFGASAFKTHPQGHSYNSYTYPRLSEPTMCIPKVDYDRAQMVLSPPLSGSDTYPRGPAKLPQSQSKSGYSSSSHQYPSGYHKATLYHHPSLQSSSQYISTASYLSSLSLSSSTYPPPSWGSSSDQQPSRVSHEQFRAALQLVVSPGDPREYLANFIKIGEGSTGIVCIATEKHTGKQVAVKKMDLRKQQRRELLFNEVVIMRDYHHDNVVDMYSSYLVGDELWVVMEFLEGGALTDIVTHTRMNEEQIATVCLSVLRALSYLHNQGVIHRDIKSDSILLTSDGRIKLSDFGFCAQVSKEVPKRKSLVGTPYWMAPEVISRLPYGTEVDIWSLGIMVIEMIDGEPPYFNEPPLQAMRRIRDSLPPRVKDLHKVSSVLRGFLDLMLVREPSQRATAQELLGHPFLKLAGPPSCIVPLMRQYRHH

[4] = target: T2, Myotonin-protein kinase (Homo sapiens) (UniProt Q09013)
T2 sequence (whole entry): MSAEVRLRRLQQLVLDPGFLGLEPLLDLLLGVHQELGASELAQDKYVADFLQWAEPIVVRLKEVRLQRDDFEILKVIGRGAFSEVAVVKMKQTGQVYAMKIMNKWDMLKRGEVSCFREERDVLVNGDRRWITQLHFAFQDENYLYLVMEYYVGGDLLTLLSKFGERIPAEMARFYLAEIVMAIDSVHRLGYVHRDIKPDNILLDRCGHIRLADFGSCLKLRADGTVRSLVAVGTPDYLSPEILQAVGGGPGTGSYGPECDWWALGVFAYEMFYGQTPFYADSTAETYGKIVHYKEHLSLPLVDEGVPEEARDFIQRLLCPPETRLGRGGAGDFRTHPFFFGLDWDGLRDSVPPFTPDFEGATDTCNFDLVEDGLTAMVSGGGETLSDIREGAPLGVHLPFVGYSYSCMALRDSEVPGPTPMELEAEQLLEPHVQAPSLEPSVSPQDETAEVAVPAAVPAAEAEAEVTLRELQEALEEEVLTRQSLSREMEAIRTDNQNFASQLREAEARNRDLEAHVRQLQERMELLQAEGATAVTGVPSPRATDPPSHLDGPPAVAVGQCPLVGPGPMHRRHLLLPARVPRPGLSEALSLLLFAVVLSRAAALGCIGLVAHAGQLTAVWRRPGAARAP

[5] = target: Serine/threonine-protein kinase 26 (Homo sapiens) (UniProt Q9P289)
[6] = target: Dual specificity mitogen-activated protein kinase kinase 2 (Homo sapiens, UniProt P36507)
Dual specificity mitogen-activated protein kinase kinase 2, sequence (P36507 whole entry): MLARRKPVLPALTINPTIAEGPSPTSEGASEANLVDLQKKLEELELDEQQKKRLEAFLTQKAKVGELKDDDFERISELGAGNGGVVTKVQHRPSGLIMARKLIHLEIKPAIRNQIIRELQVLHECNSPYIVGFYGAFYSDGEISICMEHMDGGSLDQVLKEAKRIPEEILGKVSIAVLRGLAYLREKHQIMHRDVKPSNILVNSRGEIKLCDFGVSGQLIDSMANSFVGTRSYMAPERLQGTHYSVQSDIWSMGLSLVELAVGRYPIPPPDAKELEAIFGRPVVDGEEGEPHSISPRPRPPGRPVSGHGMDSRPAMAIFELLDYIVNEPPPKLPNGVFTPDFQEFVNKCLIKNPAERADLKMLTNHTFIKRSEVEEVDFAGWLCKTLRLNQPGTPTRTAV

[7] = target: T3, Calcium/calmodulin-dependent protein kinase kinase 2 (Homo sapiens, UniProt Q96RR4)
Target sequence in this assay (Q96RR4 2-588 limits assumed): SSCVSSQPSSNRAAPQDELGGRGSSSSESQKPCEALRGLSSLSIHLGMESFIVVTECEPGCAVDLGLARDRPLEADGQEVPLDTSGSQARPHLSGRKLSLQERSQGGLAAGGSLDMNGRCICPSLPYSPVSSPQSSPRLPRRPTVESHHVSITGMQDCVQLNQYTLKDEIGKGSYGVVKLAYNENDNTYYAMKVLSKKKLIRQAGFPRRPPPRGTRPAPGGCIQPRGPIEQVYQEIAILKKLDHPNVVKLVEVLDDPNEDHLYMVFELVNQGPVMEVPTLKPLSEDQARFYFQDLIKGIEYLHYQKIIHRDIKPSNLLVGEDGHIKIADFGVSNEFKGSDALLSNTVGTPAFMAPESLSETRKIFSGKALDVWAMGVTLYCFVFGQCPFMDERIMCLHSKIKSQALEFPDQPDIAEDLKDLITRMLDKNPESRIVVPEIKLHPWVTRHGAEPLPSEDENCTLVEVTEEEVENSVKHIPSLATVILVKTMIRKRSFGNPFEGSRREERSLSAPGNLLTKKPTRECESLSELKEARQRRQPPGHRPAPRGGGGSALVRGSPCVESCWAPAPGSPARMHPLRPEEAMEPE

[8] = target: cAMP-dependent protein kinase catalytic subunit alpha (Homo sapiens) (UniProt P17612)
[9] = target: Calcium/calmodulin-dependent protein kinase type II subunit beta (Homo sapiens) (UniProt Q13554)
Calcium/calmodulin-dependent protein kinase type II subunit beta (Homo sapiens), sequence (Q13554 whole entry): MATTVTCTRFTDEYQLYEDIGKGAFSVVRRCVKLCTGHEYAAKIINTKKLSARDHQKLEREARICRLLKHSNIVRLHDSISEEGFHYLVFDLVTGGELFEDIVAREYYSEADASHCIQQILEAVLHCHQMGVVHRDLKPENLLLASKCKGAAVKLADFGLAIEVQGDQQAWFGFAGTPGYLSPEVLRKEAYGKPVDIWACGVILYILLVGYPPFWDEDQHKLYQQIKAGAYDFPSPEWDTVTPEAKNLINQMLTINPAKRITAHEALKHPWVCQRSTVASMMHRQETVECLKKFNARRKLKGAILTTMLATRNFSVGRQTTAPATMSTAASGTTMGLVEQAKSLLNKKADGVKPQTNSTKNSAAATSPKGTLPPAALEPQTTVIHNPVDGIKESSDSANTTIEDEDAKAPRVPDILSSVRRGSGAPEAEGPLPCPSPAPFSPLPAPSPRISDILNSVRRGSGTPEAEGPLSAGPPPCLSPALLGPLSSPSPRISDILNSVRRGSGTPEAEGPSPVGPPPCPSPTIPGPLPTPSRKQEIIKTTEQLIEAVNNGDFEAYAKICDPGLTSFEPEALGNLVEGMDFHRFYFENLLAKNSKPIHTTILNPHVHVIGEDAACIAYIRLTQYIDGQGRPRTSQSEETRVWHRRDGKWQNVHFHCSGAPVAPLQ

[10] = target: Mitogen-activated protein kinase 3 (Homo sapiens, UniProt P27361)
Mitogen-activated protein kinase 3, sequence (P27361 whole entry): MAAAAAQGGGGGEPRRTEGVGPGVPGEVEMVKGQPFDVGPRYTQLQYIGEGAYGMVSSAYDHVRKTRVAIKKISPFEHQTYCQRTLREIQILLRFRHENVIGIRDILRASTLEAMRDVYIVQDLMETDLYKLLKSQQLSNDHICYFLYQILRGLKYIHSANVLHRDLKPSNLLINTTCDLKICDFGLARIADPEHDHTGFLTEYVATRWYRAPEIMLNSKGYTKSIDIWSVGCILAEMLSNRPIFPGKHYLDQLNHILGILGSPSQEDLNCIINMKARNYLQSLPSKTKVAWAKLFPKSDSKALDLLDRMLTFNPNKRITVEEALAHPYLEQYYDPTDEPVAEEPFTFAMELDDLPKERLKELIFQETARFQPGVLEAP

[11] = target: Serine/threonine-protein kinase 38 (Homo sapiens) (UniProt Q15208)
Serine/threonine-protein kinase 38 (Homo sapiens), sequence (Q15208 2-465 limits assumed): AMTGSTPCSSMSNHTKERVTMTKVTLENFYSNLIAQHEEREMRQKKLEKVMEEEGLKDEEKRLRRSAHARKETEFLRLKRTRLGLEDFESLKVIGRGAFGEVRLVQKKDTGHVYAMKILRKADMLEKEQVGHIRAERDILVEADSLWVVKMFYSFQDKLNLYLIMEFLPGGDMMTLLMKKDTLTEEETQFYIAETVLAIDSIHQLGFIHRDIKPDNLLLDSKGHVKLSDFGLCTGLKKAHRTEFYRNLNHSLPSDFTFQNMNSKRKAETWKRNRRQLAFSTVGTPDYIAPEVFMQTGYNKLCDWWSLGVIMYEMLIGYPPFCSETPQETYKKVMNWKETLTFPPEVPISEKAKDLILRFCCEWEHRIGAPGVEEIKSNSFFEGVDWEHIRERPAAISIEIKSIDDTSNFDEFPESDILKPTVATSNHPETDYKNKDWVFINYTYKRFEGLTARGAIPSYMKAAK

[12] = target: Serine/threonine-protein kinase Chk2 (Homo sapiens, UniProt O96017)
Serine/threonine-protein kinase Chk2, sequence (O96017 whole entry): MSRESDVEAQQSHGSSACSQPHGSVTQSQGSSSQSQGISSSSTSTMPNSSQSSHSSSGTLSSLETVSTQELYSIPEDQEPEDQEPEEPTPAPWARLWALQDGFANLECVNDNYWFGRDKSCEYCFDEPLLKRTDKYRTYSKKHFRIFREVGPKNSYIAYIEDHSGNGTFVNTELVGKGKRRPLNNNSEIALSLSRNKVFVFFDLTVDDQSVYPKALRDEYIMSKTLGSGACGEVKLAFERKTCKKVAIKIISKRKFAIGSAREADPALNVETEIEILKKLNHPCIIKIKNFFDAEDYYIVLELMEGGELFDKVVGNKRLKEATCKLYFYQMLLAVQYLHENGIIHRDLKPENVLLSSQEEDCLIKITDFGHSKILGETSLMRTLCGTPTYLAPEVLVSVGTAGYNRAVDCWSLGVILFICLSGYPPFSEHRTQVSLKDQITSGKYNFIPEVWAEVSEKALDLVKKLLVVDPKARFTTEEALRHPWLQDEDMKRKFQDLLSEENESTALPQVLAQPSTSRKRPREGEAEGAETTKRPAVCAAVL

[13] = target: Proto-oncogene tyrosine-protein kinase Src (Homo sapiens, UniProt P12931); test: Inhibition of Src; settings: read-out: IC50
[14] = target: Serine/threonine-protein kinase Nek6 (Homo sapiens) (UniProt Q9HC98)
Serine/threonine-protein kinase Nek6 (Homo sapiens), sequence (Q9HC98 whole entry): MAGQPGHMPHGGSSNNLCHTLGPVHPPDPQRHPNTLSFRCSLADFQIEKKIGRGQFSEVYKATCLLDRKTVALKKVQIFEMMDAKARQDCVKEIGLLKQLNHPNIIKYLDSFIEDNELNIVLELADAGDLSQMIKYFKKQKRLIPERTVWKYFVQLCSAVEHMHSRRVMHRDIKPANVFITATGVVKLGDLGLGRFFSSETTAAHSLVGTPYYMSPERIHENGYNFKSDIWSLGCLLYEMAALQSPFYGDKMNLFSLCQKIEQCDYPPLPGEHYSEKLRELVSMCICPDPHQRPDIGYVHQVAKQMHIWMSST

[15] = target: Vascular endothelial growth factor receptor 2 (Homo sapiens, UniProt P35968)
[16] = target: Epidermal growth factor receptor (Homo sapiens, UniProt P00533)
[17] = Binding affinity at PKC
[18] = target: T3, Calcium/calmodulin-dependent protein kinase kinase 2; test: Inhibition of CaM-KKbeta
[19] = target: Myosin light chain kinase, smooth muscle (Homo sapiens, UniProt Q15746); test: Binding affinity at MLCK
[20] = Inhibition of Cdk2/cyclin B

Serine/threonine-protein kinase RIO2 (Homo sapiens), sequence (Q9BVS4 whole entry, looked up): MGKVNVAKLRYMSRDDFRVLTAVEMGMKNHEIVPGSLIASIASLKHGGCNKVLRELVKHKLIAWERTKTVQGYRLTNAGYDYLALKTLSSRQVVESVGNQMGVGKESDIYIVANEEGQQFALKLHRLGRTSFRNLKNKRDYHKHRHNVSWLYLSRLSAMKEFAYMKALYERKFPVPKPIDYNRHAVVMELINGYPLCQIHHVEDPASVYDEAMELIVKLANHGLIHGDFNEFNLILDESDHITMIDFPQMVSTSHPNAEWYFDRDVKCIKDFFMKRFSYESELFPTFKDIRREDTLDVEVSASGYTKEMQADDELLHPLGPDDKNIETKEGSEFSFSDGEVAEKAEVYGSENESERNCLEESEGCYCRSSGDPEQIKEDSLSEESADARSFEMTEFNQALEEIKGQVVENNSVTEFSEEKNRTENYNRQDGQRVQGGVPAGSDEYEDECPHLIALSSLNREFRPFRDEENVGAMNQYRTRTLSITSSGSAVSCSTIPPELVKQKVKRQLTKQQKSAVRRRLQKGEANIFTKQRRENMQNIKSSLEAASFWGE

Row | Structure (SMILES) | ΔTm [1] | ΔTm [2] | ΔTm [3] | ΔTm [4] | ΔTm [5] | ΔTm [6] | ΔTm [7] | ΔTm [8] | ΔTm [9] | ΔTm [10] | ΔTm [11] | ΔTm [12] | IC50 [13] | ΔTm [14] | IC50 [15] | IC50 [16] | IC50 [20] | Ki [17] | Ki [18] | Ki [19]
1 | CC(C)(C)c1cc(C=C2C(=O)C=CC2=O)cc(C(C)(C)C)c1O | 0.3 °C | -2.5 °C | 0.2 °C | 1.4 °C | 0 °C | -1.2 °C | -0.8 °C | 0.8 °C | -0.3 °C | 0.1 °C | 0.4 °C | 1.8 °C | 2.2 µM | 0.2 °C | – | – | – | – | – | –
2 | CC(C)c1cc(/C=C(\C#N)C(=O)NCCCc2ccccc2)cc(C(C)C)c1O | -0.5 °C | 0.3 °C | 0.7 °C | 1 °C | 2.5 °C | 0.3 °C | 1 °C | 0.5 °C | 1.5 °C | -0.1 °C | 0.7 °C | -0.1 °C | – | 0.9 °C | 0.7 µM | – | – | – | – | –
3 | O=S(=O)(NCCNC/C=C/c1ccc(Br)cc1)c1cccc2cnccc12 | 0 °C | 0 °C | 1.2 °C | -0.6 °C | 0.9 °C | 0 °C | -0.1 °C | 6.9 °C | -0.2 °C | -0.3 °C | 1.7 °C | 2.6 °C | – | -0.1 °C | – | – | – | 31.7 µM | 29.7 µM | 28.3 µM
4 | Cc1cc2ncc(-c3ccccc3)nc2cc1C | -0.5 °C | 0.3 °C | 0.8 °C | 1.2 °C | 1.2 °C | 0 °C | -0.4 °C | 1.1 °C | 0.8 °C | -0.6 °C | 0.5 °C | -0.3 °C | – | 0.2 °C | – | – | – | – | – | –
5 | O=C1NC(=O)C(c2c[nH]c3ccccc23)=C1c1c[nH]c2ccccc12 | 0 °C | 1.1 °C | 0.6 °C | 3.8 °C | 3.7 °C | 2.8 °C | -0.4 °C | 1.4 °C | 1.2 °C | 0.1 °C | 0.5 °C | 2.6 °C | – | -0.2 °C | – | – | – | – | – | –
6 | Oc1ccc(-c2nc(-c3ccc(F)cc3)c(-c3ccncc3)[nH]2)cc1 | -0.3 °C | 0.3 °C | 0.5 °C | 0.2 °C | -0.4 °C | 0.9 °C | -0.2 °C | 2.6 °C | 0.1 °C | 0.4 °C | 0.7 °C | -0.2 °C | – | 0.4 °C | – | – | – | – | – | –
7 | O=[N+]([O-])c1ccc(-c2nc(-c3ccc(F)cc3)c(-c3ccncc3)[nH]2)cc1 | 2.5 °C | 0 °C | 1 °C | -0.2 °C | -1.4 °C | 0.3 °C | -0.5 °C | 1.6 °C | -0.5 °C | 0.5 °C | 0.9 °C | -0.4 °C | – | 0.9 °C | – | – | – | – | – | –
8 | C#Cc1cccc(Nc2ncnc3cc(OCCOC)c(OCCOC)cc23)c1 | 0.3 °C | 0.2 °C | 0.1 °C | 3.4 °C | 0.6 °C | 0.6 °C | 0.1 °C | 0 °C | 0.5 °C | -0.3 °C | -0.3 °C | 0.4 °C | – | -0.7 °C | – | – | – | – | – | –
9 | CCN(CC)CCNC(=O)c1c(C)[nH]c(/C=C2\C(=O)Nc3ccc(F)cc32)c1C | 6 °C | 3.9 °C | 1.7 °C | 2.7 °C | -0.1 °C | 2.2 °C | 6.8 °C | 9.2 °C | 2.2 °C | 0.9 °C | 5.6 °C | 12.9 °C | – | 3.4 °C | – | – | – | – | – | –
10 | CC(C)N(CCO)c1nc(Nc2cccc(Cl)c2)c2ncn(C(C)C)c2n1 | 0.1 °C | 0.9 °C | 3 °C | 0.2 °C | 0.7 °C | 0.6 °C | 2.8 °C | 1.6 °C | 0.4 °C | 1.7 °C | 3.3 °C | 0.6 °C | – | -0.2 °C | – | – | – | – | – | –
11 | NC1=NC(=O)/C(=C2\CCNC(=O)c3[nH]c(Br)cc32)N1 [HYMENIALDISINE] | 0.2 °C | 0.6 °C | 0.4 °C | 2.1 °C | 1.8 °C | 2 °C | 3.4 °C | 0.8 °C | 0.4 °C | 0.9 °C | 1 °C | 8.2 °C | – | 0 °C | – | – | 0.04 µM | – | – | –

Now from value to compound, other results behind:

Row | ΔTm [1] | ΔTm [2] | ΔTm [3] | ΔTm [4] | ΔTm [5] | ΔTm [6] | ΔTm [7] | ΔTm [8] | ΔTm [9] | ΔTm [10] | ΔTm [11] | ΔTm [12] | IC50 [13] | ΔTm [14] | IC50 [15] | IC50 [16] | IC50 [20] | Structure (SMILES) | Ki [17] | Ki [18] | Ki [19]
12 | 0.7 °C | 0.1 °C | -0.1 °C | -0.6 °C | -0.2 °C | -0.3 °C | 0.5 °C | 0.6 °C | 0.1 °C | 0.3 °C | 0.3 °C | -0.1 °C | – | -0.3 °C | – | 7.67 µM | – | O=c1ccc2ccc(O)c(O)c2o1 [DAPHNETIN] | – | – | –
13 | 0.2 °C | 2.2 °C | 0.4 °C | 0.6 °C | 2.1 °C | 0.7 °C | 3 °C | 1.7 °C | 0.5 °C | 0.5 °C | 1.1 °C | 2.7 °C | – | 0.2 °C | – | – | – | O=c1cc(-c2ccc(O)cc2)oc2cc(O)cc(O)c12 | – | – | –
14 | 1 °C | 0.4 °C | 0.5 °C | 0.4 °C | 0.2 °C | -0.3 °C | 0.4 °C | -0.1 °C | 0.5 °C | -0.6 °C | 0.6 °C | -0.4 °C | – | -0.5 °C | – | – | – | O=c1cc(N2CCOCC2)oc2c(-c3ccccc3)cccc12 | – | – | –
15 | -0.4 °C | 1.6 °C | 1 °C | 0.2 °C | 1.6 °C | 0.2 °C | 3.5 °C | 1 °C | -0.1 °C | 0.5 °C | 0.5 °C | 0.1 °C | – | 0 °C | – | – | – | O=C1Nc2ccc(I)cc2/C1=C\c1cc(Br)c(O)c(Br)c1 | – | – | –
16 | 0.5 °C | 0.3 °C | 0.4 °C | -0.1 °C | 0.4 °C | 0.3 °C | 0.5 °C | 0.4 °C | 0.2 °C | 0.5 °C | 0 °C | 0.1 °C | – | 0.9 °C | – | – | – | N#C/C(=C\c1ccc(O)c(O)c1)C(=O)Nc1ccccc1 | – | – | –
17 | 1.3 °C | 1.2 °C | 3.8 °C | 1.9 °C | 1.3 °C | 0.3 °C | 2.5 °C | 1.6 °C | 0.3 °C | 1.1 °C | 1.8 °C | 7.8 °C | – | 0.8 °C | – | – | – | O=C1Cc2c([nH]c3ccc([N+](=O)[O-])cc23)-c2ccccc2N1 | – | – | –
18 | 5.7 °C | 6.4 °C | 3.3 °C | 2.8 °C | 7 °C | 5.9 °C | 5.9 °C | 4 °C | 2.1 °C | 0.8 °C | 3.8 °C | 4.9 °C | – | 1.2 °C | – | – | – | O=C1Nc2ccccc2/C1=C1/Nc2ccccc2/C1=N\O | – | – | –
